Source: publication PMC6155239, “Targeting PFKFB3 radiosensitizes cancer cells and suppresses homologous recombination” (Nature Communications, 2018)
pIC50: −log10 of the molar value.

Legend:
[1] = tested on: 97 kinases of the scanEDGE set; assay: DiscoveRx KINOMEscan scanEDGE panel; assay type: binding; conditions: 2 µM
[2] = tested on: intracellular F-2,6-P2 levels; assay: Intracellular F-2,6-P2 quantification (van Schaftingen assay); assay type: cell-based; conditions: pancreatic, gastric and colon cancer cell lines
Protocol: Quantification of F-2,6-P2 was performed as described by Van Schaftingen et al.[34]. The assay is based on the potent activation of pyrophosphate-dependent phosphofructokinase-1 (PPi-PFK) from potato tubers by F-2,6-P2. The use of a series of coupled enzymes leads to a consumption of nicotinamide adenine dinucleotide (NADH) that can be followed spectrophotometrically. PANC-1, NUGC-3, SW620, or MIA PaCa-2 cells were seeded at a density of 2.5 × 10^4–3.5 × 10^4 cells per well (96-well, CLS3595, Sigma-Aldrich) and incubated overnight at 37 °C and 5% CO2. […] Plates stored at −20 °C were thawed and the F-2,6-P2 quantification was initiated by transferring 40 µL from each well of the NUNC plate to the corresponding position in a transparent 96-well SpectraPlate-MB (PerkinElmer). In order to ensure that all F-2,6-P2 measured values were within the linear range of response (between 0 and 1 nM final concentration of F-2,6-P2[34]), the same sample volume of an in-house produced F-2,6-P2 standard was included on each plate. […] The coupled enzymatic reaction was allowed to proceed for 45 min at room temperature and the absorbance at 340 nm was continuously measured every 30 s (SpectraMax plate reader, Molecular Devices). The measured absorbance was proportional to the concentration of NADH, which in turn was proportional to the levels of F-2,6-P2 within the linear range. […]

PFKFB3 = PFKFB3 (Homo sapiens, UniProt Q16875); assay: ADP-Glo kinase activity assay, PFKFB3; assay type: biochemical
Protocol: The kinase activity of the bi-functional enzyme was quantified based on the production of ADP and F-2,6-P2 from ATP by ADP-GloTM Kinase Assay (Promega). The assay was performed in two steps; first, after the kinase reaction, an equal volume of ADP-GloTM Reagent was added to terminate the kinase reaction and deplete the remaining ATP. Second, the Kinase Detection Reagent was added to simultaneously convert ADP to ATP and allow the newly synthesized ATP to be measured using a luciferase/luciferin reaction. The light generated was measured using a luminescence counter (1450 MicroBeta TriLux). The assay was performed in white 384-well plates (OptiPlate, 6007299, PerkinElmer) by consecutive additions of a test compound solution (0.1 µL, serial diluted in DMSO from compound DMSO stock solution and dispensed by acoustic dispensing from UV-star 384-well plate 7360153, VWR), enzyme solution (5 µL) and substrate (fructose-6-phosphate (F6P) and adenosine-5′-triphosphate (ATP)) containing solution (5 µL). […] Four reference dose–response curves, one of them being the QC compound, were included and serial diluted as the test compounds. The final concentrations of all reagents per well were 50 mM Tris–HCl at pH 8.0, 10 mM MgCl2, 5 mM NaPi at pH 8.0, 81.48 nM PFKFB3 or 145 nM PFKFB4, 8 µM ATP, 100 µM F6P (acid treated and then neutralized to remove any contaminating F-2,6-P2[34]), 0.005% Tween-20 and 1 mM dithiothreitol. Enzyme, compounds, and controls were pre-incubated at room temperature for 15 min before the addition of substrate solution. The enzymatic reaction was allowed to proceed for 20 min and the reaction was terminated by the addition of ADP-GloTM Reagent (10 µL) to all wells followed by 40 min incubation at room temperature. […] The inhibitory potency or IC50 values of test compounds on the kinase activity of the enzymes were calculated using a four-parameter model (model 205) in XLfit (IDBS ActivityBase XE Runner).

U2OS DR-GFP cells = assay: DR-GFP (HR) assay; assay type: cell-based; conditions: DMSO = 100% activity
Protocol: 5 × 10^4 U2OS (DR-GFP) cells were seeded into 12-well plates, 24 h later cells were treated with the indicated siRNAs or inhibitors and, 24 h later, transfected with 150 ng of an I-SceI vector using JetPEI or JetPRIME (Polyplus transfections). The next day, the medium was changed; 24 h after this, cells were harvested by trypsinization and washed with PBS, and the GFP signal was measured by flow cytometry on a FACS Navios (as described above). The frequency of repair in cells treated with inhibitors or transfected with the various siRNAs was calculated relative to cells treated with DMSO or transfected with control siRNA.

Chain of PFKFB3 (Q16875 whole entry): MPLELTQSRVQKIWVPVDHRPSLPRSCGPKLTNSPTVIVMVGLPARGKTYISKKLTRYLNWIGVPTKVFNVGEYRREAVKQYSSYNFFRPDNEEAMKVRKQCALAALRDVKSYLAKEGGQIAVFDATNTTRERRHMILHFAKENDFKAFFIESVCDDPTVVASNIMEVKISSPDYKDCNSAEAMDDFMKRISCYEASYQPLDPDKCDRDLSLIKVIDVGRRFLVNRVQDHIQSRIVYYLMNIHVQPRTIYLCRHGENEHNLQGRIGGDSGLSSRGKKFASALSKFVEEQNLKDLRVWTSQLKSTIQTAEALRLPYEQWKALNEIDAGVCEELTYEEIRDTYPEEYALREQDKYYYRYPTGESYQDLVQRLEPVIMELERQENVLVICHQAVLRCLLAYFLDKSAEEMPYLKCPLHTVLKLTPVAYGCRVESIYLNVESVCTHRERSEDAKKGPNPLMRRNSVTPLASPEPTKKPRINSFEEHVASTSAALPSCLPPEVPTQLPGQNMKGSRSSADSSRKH

Row | inhibition of recombinant PFKFB3 kinase activity (in words) (PFKFB3; in vitro enzymatic assay) | Compound | binding to the 97 targets of the scanEDGE set [1] | potency on intracellular F-2,6-P2 levels (in words) [2] | pIC50 (PFKFB3; ADP-GLO assay) | HR activity as compared to vehicle-treated cells (U2OS DR-GFP cells) [%]
1 | – | O=C(O)c1ccc(NS(=O)(=O)c2cccc(-c3cc(F)ccc3O)c2)cc1O [KAN0438241, 4-{[(5′-Fluoro-2′-hydroxybiphenyl-3-yl)sulfonyl]amino}-2-hydroxybenzoic acid] | no significant binding | low µM potency | 6.72 | –
2 | largely inactive | O=C(OCCO)c1ccc(NS(=O)(=O)c2cccc(-c3cc(F)ccc3O)c2)cc1O [KAN0438757, 2-Hydroxyethyl-4-{[(5′-fluoro-2′-hydroxybiphenyl-3-yl)sulfonyl]amino}-2-hydroxybenzoate] | no significant binding | sub-µM IC50 values | – | 10
